Data: PubChem BioAssay AID248 (DTP/NCI, 2004)
Values joined by “and” are separate entries in the source; they are usually repeats but may differ in a detail not shown here. Equal values may be shown once. Toxic doses and inconclusive results are not listed. Rule as the data show it: active = T/C of 150% or more; inactive = T/C below 125%.

Tested on: L1210 leukemia ip in BDF1 mice, survival T/C
Assay: NCI In Vivo Anticancer Drug Screen. Data for tumor model L1210 Leukemia (intraperitoneal) in B6D2F1 (BDF1) mice
Conditions: endpoint: mean survival time, higher = longer survival
Summary of the method: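 Tumor was transplanted into mice, which were then dosed with test compound or vehicle alone. Survival was recorded for each group, and the treated figure was expressed relative to the control figure.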

[1] = dose: 100.0 mg/kg/injection, schedule: Q04DX003 (ip), vehicle: Klucel (hydroxypropylcellulose) (HPC)
[2] = dose: 200.0 mg/kg/injection, schedule: Q04DX003 (ip), vehicle: Klucel (hydroxypropylcellulose) (HPC)
[3] = dose: 400.0 mg/kg/injection, schedule: Q04DX003 (ip), vehicle: Klucel (hydroxypropylcellulose) (HPC)
[4] = dose: 100.0 mg/kg/injection, schedule: Q01DX009 (ip), vehicle: Klucel (hydroxypropylcellulose) (HPC)
[5] = dose: 200.0 mg/kg/injection, schedule: Q01DX009 (ip), vehicle: Klucel (hydroxypropylcellulose) (HPC)
[6] = dose: 400.0 mg/kg/injection, schedule: Q01DX009 (ip), vehicle: Klucel (hydroxypropylcellulose) (HPC)
[7] = dose: 50.0 mg/kg/injection, schedule: Q01DX009 (ip), vehicle: saline with Tween-80
[8] = dose: 100.0 mg/kg/injection, schedule: Q01DX009 (ip), vehicle: saline with Tween-80
[9] = dose: 100.0 mg/kg/injection, schedule: Q04DX003 (ip), vehicle: saline with Tween-80
[10] = dose: 200.0 mg/kg/injection, schedule: Q01DX009 (ip), vehicle: saline with Tween-80
[11] = dose: 200.0 mg/kg/injection, schedule: Q04DX003 (ip), vehicle: saline with Tween-80
[12] = dose: 100.0 mg/kg/injection, schedule: Q04DX002 (ip), vehicle: Klucel (hydroxypropylcellulose) (HPC)
[13] = dose: 200.0 mg/kg/injection, schedule: Q04DX002 (ip), vehicle: Klucel (hydroxypropylcellulose) (HPC)
[14] = dose: 100.0 mg/kg/injection, schedule: Q01DX001 (ip), vehicle: saline
[15] = dose: 200.0 mg/kg/injection, schedule: Q01DX001 (ip), vehicle: saline
[16] = dose: 400.0 mg/kg/injection, schedule: Q01DX001 (ip), vehicle: saline
[17] = dose: 400.0 mg/kg/injection, schedule: Q04DX003 (ip), vehicle: saline with Tween-80

Measured: T/C

O=[N+]([O-])c1ccc(N=Cc2ccccc2O)cc1
inactive: dose: 50.0 mg/kg/injection, schedule: Q01DX001 (sc), vehicle: olive oil, sesame oil, peanut oil 98 % of control | dose: 100.0 mg/kg/injection, schedule: Q01DX001 (sc), vehicle: olive oil, sesame oil, peanut oil 98 % of control | dose: 200.0 mg/kg/injection, schedule: Q01DX001 (sc), vehicle: olive oil, sesame oil, peanut oil 98 % of control | dose: 400.0 mg/kg/injection, schedule: Q01DX001 (sc), vehicle: olive oil, sesame oil, peanut oil 108 % of control

Cc1cc(NC(=O)NCc2ccc([N+](=O)[O-])cc2Cl)ccc1S(=O)(=O)F
inactive: [1] 98 % of control | [2] 98 % of control | [3] 106 % of control

O=S(=O)(C1CCCCC1)C1CCCC1
inactive: [4] 97 % of control | [1] 102 % of control | [5] 100 % of control | [2] 105 % of control | [6] 107 % of control | [3] 107 % of control

O=c1nc2n(O)cccc-2c(=O)[nH]1
inactive: dose: 50.0 mg/kg/injection, schedule: Q01DX009 (ip), vehicle: Klucel (hydroxypropylcellulose) (HPC) 96 % of control | [4] 100 % of control | [1] 96 % of control | [5] 101 % of control | [2] 102 % of control

Cc1csc(/N=C/c2ccc([N+](=O)[O-])o2)n1
inactive: [7] 100 % of control | [8] 105 % of control | [9] 103 % of control | [10] 101 % of control | [11] 97 % of control

Nc1ccc([N+](=O)[O-])cc1Cl
inactive: [12] 122 % of control | [13] 105 % of control | dose: 400.0 mg/kg/injection, schedule: Q04DX002 (ip), vehicle: Klucel (hydroxypropylcellulose) (HPC) 97 % of control

[Ni+2].[O-]c1ccc(Cl)cc1C=NCc1ccccn1.[O-]c1ccc(Cl)cc1C=NCc1ccccn1
inactive: [9] 93 % of control | [11] 93 % of control

NC(=O)NNC1=CC(=O)CCO1
inactive: [14] 107 % of control | [15] 106 % of control | [16] 104 % of control

CC1(C)CCCC2(C)C(C(=O)O)C3CCC45OC3(CC12)OC(=O)C4C1(C)CCCC(C)(C)C1CC5=O (stereo not given)
inactive: [14] 101 % of control | [15] 107 % of control | [16] 109 % of control

COc1cccc(C2N(Cc3ccccc3OC)CCCN2Cc2ccccc2OC)c1
inactive: dose: 50.0 mg/kg/injection, schedule: Q01DX001 (ip), vehicle: carboxymethylcellulose (CMC) 93 % of control | dose: 100.0 mg/kg/injection, schedule: Q01DX001 (ip), vehicle: carboxymethylcellulose (CMC) 102 % of control | dose: 200.0 mg/kg/injection, schedule: Q01DX001 (ip), vehicle: carboxymethylcellulose (CMC) 106 % of control | dose: 400.0 mg/kg/injection, schedule: Q01DX001 (ip), vehicle: carboxymethylcellulose (CMC) 102 % of control

O=C1OC(c2ccc([N+](=O)[O-])cc2)=N/C1=C\c1ccc(O)cc1
inactive: [4] 96 % of control | [5] 96 % of control | [6] 90 % of control

CCOC(=O)C(=O)C(=O)OCC
inactive: dose: 100.0 mg/kg/injection, schedule: Q04DX002 (ip), vehicle: saline with Tween-80 101 % of control | dose: 200.0 mg/kg/injection, schedule: Q04DX002 (ip), vehicle: saline with Tween-80 107 % of control | dose: 400.0 mg/kg/injection, schedule: Q04DX002 (ip), vehicle: saline with Tween-80 88 % of control

ClCCCSc1ccccc1
inactive: [14] 96 % of control and 111 % of control | [15] 96 % of control and 98 % of control | [16] 97 % of control and 98 % of control

CC(C)c1ccc(N2CSC(=S)N(c3ccc(C(C)C)cc3)C2)cc1
inactive: dose: 100.0 mg/kg/injection, schedule: Q04DX002 (sc), vehicle: olive oil, sesame oil, peanut oil 104 % of control | dose: 200.0 mg/kg/injection, schedule: Q04DX002 (sc), vehicle: olive oil, sesame oil, peanut oil 107 % of control | dose: 400.0 mg/kg/injection, schedule: Q04DX002 (sc), vehicle: olive oil, sesame oil, peanut oil 101 % of control

Clc1ccc2c(c1)/C(=C/c1cccnc1)c1cc(Cl)cc(Cl)c1-2
inactive: [4] 93 % of control | [1] 88 % of control | dose: 200.0 mg/kg/injection, schedule: Q01DX001 (ip), vehicle: Klucel (hydroxypropylcellulose) (HPC) 94 % of control | [5] 90 % of control | [2] 95 % of control | dose: 400.0 mg/kg/injection, schedule: Q01DX001 (ip), vehicle: Klucel (hydroxypropylcellulose) (HPC) 90 % of control | [3] 88 % of control

c1cnc2nc3[nH]c4ccccc4c3nc2c1
inactive: dose: 25.0 mg/kg/injection, schedule: Q01DX009 (ip), vehicle: saline with Tween-80 92 % of control | dose: 50.0 mg/kg/injection, schedule: Q01DX001 (oral), vehicle: saline with Tween-80 107 % of control | [7] 92 % of control and 89 % of control | dose: 50.0 mg/kg/injection, schedule: Q04DX003 (ip), vehicle: saline with Tween-80 96 % of control | dose: 100.0 mg/kg/injection, schedule: Q01DX001 (oral), vehicle: saline with Tween-80 115 % of control | [8] 94 % of control and 91 % of control | [9] 88 % of control | dose: 200.0 mg/kg/injection, schedule: Q01DX001 (oral), vehicle: saline with Tween-80 110 % of control | [10] 92 % of control and 94 % of control | [11] 90 % of control | dose: 400.0 mg/kg/injection, schedule: Q01DX001 (oral), vehicle: saline with Tween-80 108 % of control | dose: 400.0 mg/kg/injection, schedule: Q01DX009 (ip), vehicle: saline with Tween-80 92 % of control | [17] 86 % of control | dose: 800.0 mg/kg/injection, schedule: Q01DX001 (oral), vehicle: saline with Tween-80 105 % of control

CCC(C)NC(=O)/C=C/C(=O)NC(C)CC (stereo not given)
inactive: [9] 91 % of control | [11] 100 % of control | [17] 100 % of control

O=C1CC2CC1C1CC(Br)C(Br)C21 (stereo not given)
inactive: dose: 100.0 mg/kg/injection, schedule: Q04DX003 (ip), vehicle: acetone 97 % of control | dose: 200.0 mg/kg/injection, schedule: Q04DX003 (ip), vehicle: acetone 97 % of control | dose: 400.0 mg/kg/injection, schedule: Q04DX003 (ip), vehicle: acetone 92 % of control

CC/C(C)=N/NCCO
inactive: dose: 12.5 mg/kg/injection, schedule: Q01DX001 (ip), vehicle: saline 114 % of control | dose: 12.5 mg/kg/injection, schedule: Q01DX009 (ip), vehicle: saline 93 % of control | dose: 25.0 mg/kg/injection, schedule: Q01DX001 (ip), vehicle: saline 101 % of control | dose: 25.0 mg/kg/injection, schedule: Q01DX009 (ip), vehicle: saline 97 % of control | dose: 50.0 mg/kg/injection, schedule: Q01DX001 (ip), vehicle: saline 103 % of control and 104 % of control

O=CNC(CSC(=O)c1ccccc1)C(=O)O (stereo not given)
inactive: [4] 101 % of control | [1] 97 % of control | [5] 101 % of control | [2] 97 % of control | [3] 94 % of control

COP(=O)(OC)C(O)C(Cl)Cl (stereo not given)
inactive: dose: 100.0 mg/kg/injection, schedule: Q04DX002 (ip), vehicle: saline 115 % of control | dose: 200.0 mg/kg/injection, schedule: Q04DX002 (ip), vehicle: saline 104 % of control | dose: 400.0 mg/kg/injection, schedule: Q04DX002 (ip), vehicle: saline 104 % of control

NCS(=O)(=O)O
inactive: dose: 25.0 mg/kg/injection, schedule: Q01DX001 (ip), vehicle: saline with Tween-80 107 % of control | dose: 50.0 mg/kg/injection, schedule: Q01DX001 (ip), vehicle: saline with Tween-80 107 % of control | [4] 98 % of control | dose: 100.0 mg/kg/injection, schedule: Q01DX009 (ip), vehicle: saline 100 % of control | [5] 98 % of control | dose: 200.0 mg/kg/injection, schedule: Q01DX009 (ip), vehicle: saline 93 % of control | [6] 95 % of control | dose: 400.0 mg/kg/injection, schedule: Q01DX009 (ip), vehicle: saline 88 % of control

CC(=O)Nc1ccc2c(c1)OCO2
inactive: [8] 101 % of control | [9] 107 % of control | [10] 102 % of control | [11] 108 % of control | [17] 103 % of control

CC(C)(C)c1ccc(OC(=O)Nc2ccc(O)c(C(=O)O)c2)cc1
inactive: dose: 100.0 mg/kg/injection, schedule: Q01DX001 (ip), vehicle: Klucel (hydroxypropylcellulose) (HPC) 115 % of control | [4] 94 % of control and 98 % of control | [12] 96 % of control and 118 % of control | [1] 96 % of control | [5] 94 % of control | [13] 92 % of control and 86 % of control | [2] 86 % of control
